Experiment [1] concerns the target T1, human MetAP2 enzyme (Homo sapiens, UniProt P50579). In words: MetAP2 enzyme assay, enzyme complexed with cobalt ions. Particulars: MetAP2 Co pIC50, MetAP2 enzyme complexed with cobalt ions; Met-AMC substrate at Km.
The target in experiment [2] is T1, human MetAP2 enzyme. In words: MetAP2 enzyme assay, enzyme complexed with manganese ions. The settings on record: MetAP2 Mn pIC50, MetAP2 enzyme complexed with manganese ions; Met-AMC substrate at Km.

T1 sequence (P50579 whole entry): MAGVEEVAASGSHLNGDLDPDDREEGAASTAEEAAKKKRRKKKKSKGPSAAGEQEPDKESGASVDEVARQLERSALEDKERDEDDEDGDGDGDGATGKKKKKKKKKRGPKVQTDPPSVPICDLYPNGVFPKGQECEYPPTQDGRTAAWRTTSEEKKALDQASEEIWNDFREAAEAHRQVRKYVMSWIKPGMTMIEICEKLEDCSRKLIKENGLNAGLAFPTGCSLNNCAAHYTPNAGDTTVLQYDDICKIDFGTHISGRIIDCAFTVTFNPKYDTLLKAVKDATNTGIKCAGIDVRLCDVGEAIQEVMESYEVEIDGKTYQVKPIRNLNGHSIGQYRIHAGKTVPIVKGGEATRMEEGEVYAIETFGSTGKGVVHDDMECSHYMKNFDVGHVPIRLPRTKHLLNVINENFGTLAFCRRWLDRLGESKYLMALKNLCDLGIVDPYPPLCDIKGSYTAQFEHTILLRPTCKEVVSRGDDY

Consider `CC(=O)Nc1ccc(-c2cc(C(F)(F)F)cc3[nH]ncc23)c(C)n1` [Example 178, N-(6-methyl-5-(6-(trifluoromethyl)-1H-indazol-4-yl)pyridin-2-yl)acetamide], for which the concentration for half-maximal inhibition (IC50) in experiment [1] was 31.6 nM; in experiment [2], 7.94 nM.
For `Cn1ncc2cc(-c3cc(C(F)(F)F)cc4[nH]ncc34)ccc21` [Example 36, 1′-methyl-6-(trifluoromethyl)-1H,1′H-4,5′-biindazole] the same measures were 25.1 nM and 6.31 nM.
In the case of `COCc1[nH]nc(C)c1-c1cc(C(F)(F)F)cc2[nH]ncc12` [Example 323, 4-(5-(methoxymethyl)-3-methyl-1H-pyrazol-4-yl)-6-(trifluoromethyl)-1H-indazole], the IC50 in experiment [1] was 10 nM; in experiment [2], 12.6 nM.
As for `Cc1cnc(-c2cc(C(F)(F)F)cc3[nH]ncc23)n1C` [Example 162, 4-(1,5-dimethyl-1H-imidazol-2-yl)-6-(trifluoromethyl)-1H-indazole], the IC50 is 316 nM in experiment [1] and 6.31 nM in experiment [2].
For `Cc1cc(=O)[nH]cc1-c1cc(C(F)(F)F)cc2[nH]ncc12` [Example 390, 4-methyl-5-(6-(trifluoromethyl)-1H-indazol-4-yl)pyridin-2(1H)-one] the same measures were 39.8 nM and 6.31 nM.
`CCNC(=O)c1cccc(-c2cc(C(F)(F)F)cc3[nH]ncc23)c1` [Example 88, N-ethyl-3-(6-(trifluoromethyl)-1H-indazol-4-yl)benzamide]: the concentration for half-maximal inhibition (IC50) was 79.4 nM in experiment [1] and 3.98 nM in experiment [2].
With `Cc1nn(CC(N)=O)c(C)c1-c1cc(C(F)(F)F)cc2[nH]ncc12` [Example 173, 2-(3,5-dimethyl-4-(6-(trifluoromethyl)-1H-indazol-4-yl)-1H-pyrazol-1-yl)acetamide], the IC50 is 31.6 nM in experiment [1] and 15.8 nM in experiment [2].
Turning to `NC(=O)c1cc(-c2cc(C(F)(F)F)cc3[nH]ncc23)cnc1N` [Example 233, 2-amino-5-(6-(trifluoromethyl)-1H-indazol-4-yl)nicotinamide], the IC50 in experiment [1] is 100 nM; in experiment [2] it was 7.94 nM.
`Cc1c(-c2cc(C(F)(F)F)cc3[nH]ncc23)c(N)nn1C` [Example 381, 1,5-dimethyl-4-(6-(trifluoromethyl)-1H-indazol-4-yl)-1H-pyrazol-3-amine]: the results for the IC50 in experiment [1] and in experiment [2] were 39.8 nM and 6.31 nM, respectively.
Consider `Cc1c(C(=O)N2CCN(C)CC2)cc(-c2cc(C(F)(F)F)cc3[nH]ncc23)c(=O)n1C` [Example 401, 1,6-dimethyl-5-(4-methylpiperazine-1-carbonyl)-3-(6-(trifluoromethyl)-1H-indazol-4-yl)pyridin-2(1H)-one], for which the half-maximal inhibitory concentration (IC50) in experiment [1] is 200 nM; in experiment [2], 6.31 nM.
As to `NS(=O)(=O)c1ccc(-c2cc(C(F)(F)F)cc3[nH]ncc23)cc1F` [Example 344, 2-fluoro-4-(6-(trifluoromethyl)-1H-indazol-4-yl)benzenesulfonamide], the values for the concentration for half-maximal inhibition (IC50) in experiment [1] and in experiment [2] were 100 nM and 6.31 nM, respectively.
With `Cc1nn(-c2nnn[nH]2)c(C)c1-c1cc(C(F)(F)F)cc2[nH]ncc12` [Example 169, 4-(3,5-dimethyl-1-(1H-tetrazol-5-yl)-1H-pyrazol-4-yl)-6-(trifluoromethyl)-1H-indazole], the concentration for half-maximal inhibition (IC50) in experiment [1] is 251 nM; in experiment [2], 20 nM.
On to `O=C(NCCO)c1cc(-c2cc(C(F)(F)F)cc3[nH]ncc23)c[nH]c1=O` [Example 228, N-(2-hydroxyethyl)-2-oxo-5-(6-(trifluoromethyl)-1H-indazol-4-yl)-1,2-dihydropyridine-3-carboxamide], for which the IC50 in experiment [1] is 158 nM; in experiment [2] it was 5.01 nM.
On to `Fc1c(-c2cc(C(F)(F)F)cc3[nH]ncc23)ccnc1N1CCOCC1` [Example 65, 4-(3-fluoro-4-(6-(trifluoromethyl)-1H-indazol-4-yl)pyridin-2-yl)morpholine], for which the values for the half-maximal inhibitory concentration (IC50) in experiment [1] and in experiment [2] were 15.8 nM and 12.6 nM, respectively.
With `Cc1ccc(C(=O)NCCO)cc1-c1cc(C(F)(F)F)cc2[nH]ncc12` [Example 368, N-(2-hydroxyethyl)-4-methyl-3-(6-(trifluoromethyl)-1H-indazol-4-yl)benzamide], the IC50 is 31.6 nM in experiment [1] and 12.6 nM in experiment [2].
In the case of `Cc1nn(C)cc1-c1cc(C(F)(F)F)cc2[nH]ncc12` [Example 39, 4-(1,3-dimethyl-1H-pyrazol-4-yl)-6-(trifluoromethyl)-1H-indazole], the values for the IC50 in experiment [1] and in experiment [2] were 31.6 nM and 12.6 nM, respectively.
`COc1nccc(-c2cc(C(F)(F)F)cc3[nH]ncc23)c1Cl` [Example 124, 4-(3-chloro-2-methoxypyridin-4-yl)-6-(trifluoromethyl)-1H-indazole]: the values for the IC50 in experiment [1] and in experiment [2] were 63.1 nM and 15.8 nM, respectively.
As to `COc1nc(C(=O)N2CC(O)C2)ccc1-c1cc(C(F)(F)F)cc2[nH]ncc12` [Example 395, (3-hydroxyazetidin-1-yl)(6-methoxy-5-(6-(trifluoromethyl)-1H-indazol-4-yl)pyridin-2-yl)methanone], the IC50 in experiment [1] was 31.6 nM; in experiment [2], 6.31 nM.
For `CN1CCN(C(=O)c2cncc(-c3cc(C(F)(F)F)cc4[nH]ncc34)c2)CC1` [Example 287, (4-methylpiperazin-1-yl)(5-(6-(trifluoromethyl)-1H-indazol-4-yl)pyridin-3-yl)methanone] the same measures were 63.1 nM and 3.98 nM.
For the compound `CN(C)C(=O)Cn1c(=O)c(-c2cc(C(F)(F)F)cc3[nH]ncc23)cn(C)c1=O` [Example 309, N,N-dimethyl-2-(3-methyl-2,6-dioxo-5-(6-(trifluoromethyl)-1H-indazol-4-yl)-2,3-dihydropyrimidin-1(6H)-yl)acetamide], the IC50 in experiment [1] was 1000 nM; in experiment [2] it was 20 nM.
Turning to `NS(=O)(=O)c1ccc(-c2cc(C(F)(F)F)cc3[nH]ncc23)c(Cl)c1` [Example 351, 3-chloro-4-(6-(trifluoromethyl)-1H-indazol-4-yl)benzenesulfonamide], the IC50 in experiment [1] is 39.8 nM; in experiment [2], 12.6 nM.
On to `O=C(NCCO)c1ccc(F)c(-c2cc(C(F)(F)F)cc3[nH]ncc23)c1` [Example 360, 4-fluoro-N-(2-hydroxyethyl)-3-(6-(trifluoromethyl)-1H-indazol-4-yl)benzamide], for which the concentration for half-maximal inhibition (IC50) was 39.8 nM in experiment [1] and 7.94 nM in experiment [2].
For `Cc1nn(CCC#N)c(C)c1-c1cc(C(F)(F)F)cc2[nH]ncc12` [Example 174, 3-(3,5-dimethyl-4-(6-(trifluoromethyl)-1H-indazol-4-yl)-1H-pyrazol-1-yl)propanenitrile] the same measures were 63.1 nM and 12.6 nM.
As to `Cc1nc2[nH]cnc2cc1-c1cc(C(F)(F)F)cc2[nH]ncc12` [Example 195, 5-methyl-6-(6-(trifluoromethyl)-1H-indazol-4-yl)-3H-imidazo[4,5-b]pyridine], the IC50 was 25.1 nM in experiment [1] and 6.31 nM in experiment [2].
For `COc1ccc(-c2cc(C(F)(F)F)cc3[nH]ncc23)c2cccnc12` [Example 113, 8-methoxy-5-(6-(trifluoromethyl)-1H-indazol-4-yl)quinoline] the same measures were 20 nM and 7.94 nM.
Take `O=c1[nH]cc(-c2cc(C(F)(F)F)cc3[nH]ncc23)c(=O)[nH]1` [Example 54, 5-(6-(trifluoromethyl)-1H-indazol-4-yl)pyrimidine-2,4(1H,3H)-dione]: the IC50 in experiment [1] was 398 nM; in experiment [2], 6.31 nM.
In the case of `O=C1CNc2ncc(-c3cc(C(F)(F)F)cc4[nH]ncc34)cc2N1` [Example 244, 7-(6-(trifluoromethyl)-1H-indazol-4-yl)-3,4-dihydropyrido[2,3-b]pyrazin-2(1H)-one], the concentration for half-maximal inhibition (IC50) is 31.6 nM in experiment [1] and 5.01 nM in experiment [2].
As to `Oc1ncccc1-c1cc(C(F)(F)F)cc2[nH]ncc12` [Example 210, 3-(6-(trifluoromethyl)-1H-indazol-4-yl)pyridin-2-ol], the half-inhibitory concentration (IC50) in experiment [1] was 631 nM; in experiment [2] it was 12.6 nM.
Turning to `CCNC(=O)Cn1c(=O)c(-c2cc(C(F)(F)F)cc3[nH]ncc23)cn(C)c1=O` [Example 302, N-ethyl-2-(3-methyl-2,6-dioxo-5-(6-(trifluoromethyl)-1H-indazol-4-yl)-2,3-dihydropyrimidin-1(6H)-yl)acetamide], the 50% inhibitory concentration (IC50) in experiment [1] is 501 nM; in experiment [2], 6.31 nM.
Take `Cc1nc(C#N)ccc1-c1cc(C(F)(F)F)cc2[nH]ncc12` [Example 377, 6-methyl-5-(6-(trifluoromethyl)-1H-indazol-4-yl)picolinonitrile]: the values for the half-maximal inhibitory concentration (IC50) in experiment [1] and in experiment [2] were 50.1 nM and 5.01 nM, respectively.
For `O=C1Cc2cc(-c3cc(C(F)(F)F)cc4[nH]ncc34)cnc2N1` [Example 238, 5-(6-(trifluoromethyl)-1H-indazol-4-yl)-1H-pyrrolo[2,3-b]pyridin-2(3H)-one], in that order: 39.8 nM and 6.31 nM.
As to `COc1ccc(N)c(-c2cc(C(F)(F)F)cc3[nH]ncc23)n1` [Example 184, 6-methoxy-2-(6-(trifluoromethyl)-1H-indazol-4-yl)pyridin-3-amine], the IC50 in experiment [1] is 501 nM; in experiment [2], 20 nM.
Turning to `FC(F)(F)c1cc(-c2cnn(Cc3ccccn3)c2)c2cn[nH]c2c1` [Example 72, 4-(1-(pyridin-2-ylmethyl)-1H-pyrazol-4-yl)-6-(trifluoromethyl)-1H-indazole], the results for the 50% inhibitory concentration (IC50) in experiment [1] and in experiment [2] were 25.1 nM and 2.51 nM, respectively.
As to `COc1cccc(-c2cc(C(F)(F)F)cc3[nH]ncc23)c1OC` [Example 87, 4-(2,3-dimethoxyphenyl)-6-(trifluoromethyl)-1H-indazole], the figures for the IC50 in experiment [1] and in experiment [2] were 126 nM and 7.94 nM, respectively.
On to `NC(=O)Cc1cccc(-c2cc(C(F)(F)F)cc3[nH]ncc23)c1` [Example 38, 2-(3-(6-(trifluoromethyl)-1H-indazol-4-yl)phenyl)acetamide], for which the IC50 in experiment [1] was 50.1 nM; in experiment [2] it was 10 nM.
